# Where “and” joins values, the source holds several entries; their conditions need not be identical. Equal entries are not always repeated.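 Test compounds were applied to cells in 96-well plates for 48 hours at 5 doses. GI50 marks 50% less growth. TGI marks complete inhibition of growth.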
# Tests used:
# Assay in all cases: NCI-60 cell line screen, 48 h
# KM12 colon = tested on: KM12 colon
# SF-539 CNS = tested on: SF-539 CNS
# SW-620 colon = tested on: SW-620 colon
# UO-31 renal = tested on: UO-31 renal
# A498 renal = tested on: A498 renal
# SNB-75 CNS = tested on: SNB-75 CNS
# BT-549 breast = tested on: BT-549 breast
# DU-145 prostate = tested on: DU-145 prostate
Compound,TGI (KM12 colon),TGI (SF-539 CNS),TGI (SW-620 colon),TGI (UO-31 renal),TGI (A498 renal),TGI (SNB-75 CNS),TGI (BT-549 breast),TGI (DU-145 prostate),GI50 (A498 renal),GI50 (BT-549 breast),GI50 (SF-539 CNS),GI50 (SNB-75 CNS),GI50 (SW-620 colon),GI50 (UO-31 renal),GI50 (DU-145 prostate),GI50 (KM12 colon)
CC(C)(C)c1cc(CCC(=O)Nc2ccc(Cl)cc2)nc(NC#N)n1,> 100 µM,> 100 µM,> 100 µM,> 100 µM,–,–,–,–,–,–,–,–,–,–,–,–
COc1ccc(NC(=O)CC(=O)N/N=C/c2ccc(N(CCC#N)S(C)(=O)=O)cc2)cc1,> 100 µM,> 100 µM,> 100 µM,> 100 µM,> 100 µM,> 100 µM,–,–,–,–,–,–,–,–,–,–
Nc1c(-c2ccc(Cl)cc2)[n+]([O-])c2ccccc2[n+]1[O-],> 100 µM,> 100 µM,> 100 µM,55.3 µM,> 100 µM,> 100 µM,–,–,–,–,–,–,–,–,–,–
N#CSC1CCCCNC1=O (stereo unspecified),31.3 µM,26.5 µM,–,31.1 µM,–,–,21.5 µM,32.8 µM,–,–,–,–,–,–,–,–
CC(SC(=S)N1CCOCC1)c1cc2oc(=O)n(C)c2cc1Cl (stereo unspecified),> 100 µM,> 100 µM,> 10 µM,> 100 µM,–,> 100 µM,–,–,–,–,–,–,–,–,–,–
O=C(CCc1cc(-c2ccccc2)nc(=S)[nH]1)N(Cc1ccccc1)Cc1ccccc1,> 100 µM,> 100 µM,> 100 µM,> 100 µM,> 100 µM,–,–,–,–,–,–,–,–,–,–,–
COc1ccc2c(c1)[n+](=O)c(C(=O)C/C(=N/OCCCc1ccccc1)C(=O)NC13CC4CC(CC(C4)C1)C3)c(C)n2[O-],> 100 µM,> 100 µM,> 100 µM,> 100 µM,> 100 µM,> 100 µM,–,–,–,–,–,–,–,–,–,–
Nc1cccc(S(=O)(=O)NCC(=O)O)c1,> 100 µM,> 100 µM,> 100 µM,> 100 µM,–,> 100 µM,–,–,–,–,–,–,–,–,–,–
CCCn1c(=S)sc2c1nc(C)n1c(Nc3ccccc3)nnc21,–,30.3 µM,22.3 µM,> 100 µM,14.1 µM,71 µM,12 µM,–,2.52 µM,2.99 µM,7.45 µM,12.9 µM,8.41 µM,5.05 µM,–,–
CCc1ccccc1NC(=O)C1=C(C)NC(C)=C(C(=O)Nc2ccccc2CC)C1c1ccc2c(c1)OCO2,50.6 µM,45.8 µM,> 100 µM,70.5 µM,81.5 µM,89.3 µM,–,–,–,–,–,–,–,–,–,–
NC1=NC(c2ccccc2)CC(c2cc(Cl)ccc2O)=N1 (stereo unspecified),26.9 µM,28.5 µM,27 µM,29.2 µM,34.5 µM,31.7 µM,–,–,–,–,–,–,–,–,–,–
CCCCCCCC(=O)OCC/C=C/C1OC1C1OC(=O)/C=C\C=C\c2nc(oc2C)/C=C(/C)CCC2OC2C1OC(=O)NC(C)=O (stereo unspecified),0.119 µM,0.0819 µM,1.07 µM,–,0.00927 µM,0.0765 µM,0.168 µM,1.37 µM,0.00368 µM,0.0466 µM,0.0396 µM,0.0277 µM,0.0393 µM,–,0.0526 µM,0.0271 µM
O=C(CC1(O)C(=O)Nc2c(Cl)ccc(Cl)c21)c1ccc(F)cc1 (stereo unspecified),> 100 µM,–,> 100 µM,> 100 µM,–,74.7 µM,–,–,–,–,–,–,–,–,–,–
O=C(O)CCSC(=O)Nc1ccc([N+](=O)[O-])cc1,> 100 µM,> 100 µM,> 100 µM,> 100 µM,> 100 µM,64.7 µM,–,–,–,–,–,–,–,–,–,–
COc1ccc2nc3c(C(=O)NCCN(C)C)cccc3nc2c1,> 100 µM,10.9 µM,81.6 µM,47.9 µM,7.54 µM,25.5 µM,–,–,–,–,–,–,–,–,–,–
COc1cc(C(=O)CBr)c(OC)cc1C,> 100 µM,> 100 µM,> 100 µM,> 100 µM,> 100 µM,–,> 100 µM,> 100 µM,–,–,–,–,–,–,–,–
O=C(N/C(=C\c1cccc([N+](=O)[O-])c1)c1nc2ccc([N+](=O)[O-])cc2[nH]1)c1ccccc1,> 100 µM,> 100 µM,> 100 µM,58.9 µM,–,–,–,–,–,–,–,–,–,–,–,–
CC(=O)O[C@H]1C(=O)[C@@]2(C)C(C(OC(=O)c3ccccc3)[C@]3(O)CC(OC(=O)[C@H](OC(=O)CCC(=O)O)C(NC(=O)c4ccccc4)c4ccccc4)C(C)=C1C3(C)C)C1(OC(C)=O)COC1C[C@@H]2O (stereo partly specified),–,< 0.0196 µM and 0.0584 µM,> 100 µM,> 100 µM,–,–,–,0.0715 µM and 0.193 µM,–,–,–,0.022 µM and 0.076 µM,–,14 µM and 61.4 µM,< 0.01 µM and 0.0319 µM,–
CCC[CH2][Sn]1([CH2]CCC)[O]C(=O)CN=Cc2c(ccc3ccccc23)[O]1,2.28 µM,> 100 µM,0.417 µM,1.92 µM,> 100 µM,1.03 µM,–,–,1.55 µM,–,1.51 µM,0.295 µM,0.184 µM,0.635 µM,–,0.888 µM
CCN(CC)C(c1ccc(N(C)C)cc1)C(c1ccc(N(C)C)cc1)N(CC)CC (stereo unspecified),> 73 µM,> 73 µM,> 73 µM,–,> 73 µM,> 73 µM,–,–,–,–,–,–,–,–,–,–
CCOC(=O)/C(C#N)=C/c1[nH]c(C(=O)OCc2ccccc2)c(C)c1C,> 100 µM,> 100 µM,> 100 µM,> 100 µM,–,> 100 µM,–,–,–,–,–,–,–,–,–,–
